Results taken from paper PMC12442099 (ACS Infectious Diseases, 2025).
Converted amounts (≈) assume the structure as drawn.

Tests used:
[1] = tested on: SOS stress response in E. coli MC4100; assay: SOS stress reporter assay (PlexA-mNG); assay type: cell-based; conditions: EC80 compound concentrations (Fig. 5A); Fig. S4
Excerpt: (§1) To examine the potential link between DNA gyrase inhibition, SOS stress, and CE stress, we designed a fluorescent SOS reporter plasmid, similar to the reporter plasmids used to study CE stresses.
5 (A) SOS stress induced by different compounds at EC80 concentrations in E. coli MC4100. (B) Rcs stress of different compounds at EC80 concentrations in E. coli MC4100. (C) Rcs stress of the nonquinolone gyrase inhibitor LEI-800 in TOP10F’. (D) Rcs stress induced by mitomycin C in E. coli TOP10F’ and E. coli MC4100. Graphs show fold change in fluorescence adjusted for bacterial growth (OD600). Error bars indicate standard deviation of triplicates. Data are representative of two independent experiments with similar results.

[2] = tested on: SOS stress response in E. coli TOP10F’; assay: SOS stress reporter assay (PlexA-mNG); assay type: cell-based; conditions: Fig. S4
Method: as §1
Figure S3: Growth kinetics of lomefloxacin, gepotidacin, A2 and B1 on WT, FQR and GEPR mutants. E. coli TOP10F’ cells were treated with EC80 concentrations of compounds and growth (OD600) recorded over time.
Graphs indicate % growth compared to DMSO control. Error bars indicate standard deviations of triplicates.
Data are representative of three independent experiments with similar results.
Fold change (RFU/OD600) MMC 1.6 μM
Fold change (RFU/OD600) Lome 18 μM
Figure S4: SOS stress induced by mitomycin C (MMC) and lomefloxacin (Lome). A) E. coli MC4100 or B) TOP10F’ cells with a plasmid expressing mNeonGreen under control of a PlexA promotor were treated with compounds and growth (OD600) and fluorescence recorded over time. Graphs indicate fold change in growth-adjusted fluorescence compared to DMSO control. Error bars indicate standard deviations of triplicates. […]

[3] = tested on: Rcs stress response in E. coli MC4100 (WT, FQR, GEPR); assay: Rcs stress reporter assay in MC4100 wildtype and resistant mutants; assay type: cell-based; conditions: EC80 concentrations
Excerpt: Serial passaging of E. coli MC4100 in the presence of increasing concentrations of lomefloxacin or gepotidacin yielded resistant variants of E. coli MC4100. We used MC4100 to raise resistance, because unlike the screening strain TOP10F’, this strain has a functional SOS stress response, which has been implicated in developing resistance against quinolones. Compounds also elicited a robust Rcs stress response in E. coli MC4100, allowing for this strain to be used for stress assays.
4 Rcs stress induced by EC80 concentrations of (A) lomefloxacin, (B) gepotidacin, (C) A2, and (D) B1 in wildtype (WT), fluoroquinolone resistant (FQR) or gepotidacin resistant (GEPR) bacteria. Graphs show the fold change in fluorescence adjusted for bacterial growth as determined by OD600. Error bars indicate the standard deviation of triplicate samples. Data are representative of three independent experiments with similar results. […]
(§2) For lower throughput analysis under laboratory conditions, cultures grown to OD600 of 0.3–0.4 were diluted to a final concnetration of 0.05 OD600 units/mL in black, clear-bottom 96-well plates (Greiner Bio-One B.V.). Plates were incubated in a Biotek HTX or H1 plate reader (Agilent Technologies) at 37 °C with continuous shaking. Kinetic studies were performed by measuring OD600 and fluorescence (Ex./Em. Λ: 485/528 nm) every 20 min for 10h. For end point measurements, fluorescence was measured at T = 0 and once more at T = 150 min.

[4] = tested on: E. coli MC4100 FQR and GEPR mutants; assay: Growth kinetics on resistant mutants; assay type: cell-based; conditions: EC80 concentrations, Fig. S3
Method: ONC of E. coli MC4100 were diluted to OD600 = 0.07 in 20 mL LB supplemented with an initial concentration of 0.4 μM lomefloxacin, 8 μM gepotidacin, or no antibiotic. After overnight incubation, part of the culture was plated onto LB agar plates with the same concentration of lomefloxacin or gepotidacin to isolate resistant colonies. OD600 of the remaining culture was determined and diluted to OD600 = 0.1 into fresh medium with a 1.5–2-fold increased concentration of lomefloxacin or gepotidacin. […] Resistant colonies were sent for Whole Genome Sequencing using short Illumina reads at MicrobesNG (Birmingham, UK). Sequencing data was analyzed using CLC Genomics Workbench (Qiagen).
Figure S3: Growth kinetics of lomefloxacin, gepotidacin, A2 and B1 on WT, FQR and GEPR mutants. E. coli
TOP10F’ cells were treated with EC80 concentrations of compounds and growth (OD600) recorded over time.
Graphs indicate % growth compared to DMSO control. Error bars indicate standard deviations of triplicates. […]

E. coli TOP10F' = assay: Growth inhibition after 7 hours (EC80/EC50); conditions: for EC50 / IC80: Escherichia coli, 7 h; for EC50: read-out: EC50 TOP10F'; for IC80: read-out: EC80 TOP10F'
E. coli MC4100 = assay: Growth inhibition after 7 hours (EC80/EC50); conditions: Escherichia coli, MC4100, 7 h; for EC50: read-out: EC50 MC4100; for IC80: read-out: EC80 MC4100
A. baumanni 9955 = assay: MIC broth microdilution; assay type: cell-based; conditions: Acinetobacter baumannii, clinical isolate, CAMHB, median of triplicates, read-out: MIC (μg/mL) A. baumanni 9955
Method: (§3) The antibacterial activity of the compounds was determined by measuring their minimum inhibitory concentration (MIC) values using the broth microdilution method according to the Clinical and Laboratory Standards Institute guidelines (CLSI). Briefly, a single colony from blood agar plates was inoculated into cation-adjusted Mueller-Hinton broth (CAMHB) and grown to OD600 = 0.5. Next, 10^6 CFU/mL were added to a 2-fold serial dilution series of test compounds and incubated at 37 °C, 600 rpm overnight (18–20 h for Gram-negative strains, 20–24 h for Gram-positive strains), after which the plates were visually inspected for bacterial growth. MICs are reported as the median of triplicates.

E. coli 25922 = assay: MIC broth microdilution; assay type: cell-based; conditions: Escherichia coli, CAMHB, median of triplicates, read-out: MIC (μg/mL) E. coli 25922
Method: as §3

E. coli BW25113 = assay: MIC broth microdilution; assay type: cell-based; conditions: Escherichia coli, CAMHB, median of triplicates, read-out: MIC (μg/mL) E. coli BW25113
Method: as §3

E. coli TOP10F’ = assay: MIC broth microdilution; assay type: cell-based; conditions: Escherichia coli; screening strain; CAMHB, median of triplicates; read-out: MIC (μg/mL) E. coli TOP10F’
Method: as §3

K. pneumoniae 13883 = assay: MIC broth microdilution; assay type: cell-based; conditions: Klebsiella pneumoniae, clinical isolate, CAMHB, median of triplicates, read-out: MIC (μg/mL) K. pneumoniae 13883
Method: as §3

P. aeruginosa 27853 = assay: MIC broth microdilution; assay type: cell-based; conditions: Pseudomonas aeruginosa, clinical isolate, CAMHB, median of triplicates, read-out: MIC (μg/mL) P. aeruginosa 27853
Method: as §3

S. aureus USA 300 = assay: MIC broth microdilution; assay type: cell-based; conditions: Staphylococcus aureus, USA300; clinical isolate; CAMHB, median of triplicates; read-out: MIC (μg/mL) S. aureus USA 300
Method: as §3

[5] = tested on: Rcs stress response in E. coli TOP10F’; assay: Rcs stress kinetics reporter assay; assay type: cell-based
Method: (§4) Stress was measured in real-time during 10 h following compound treatment by normalizing the fluorescence intensity for growth as indicated by the optical density at 600 nm (OD600) of the culture.
(§5) 3 Bacterial stress responses of different compound classes as shown in panel (A). (B) Rcs, (C) σE, (D) Cpx, and (E) heat shock. Graphs show fold change in fluorescence normalized for OD600 at EC80 compound concentrations over the course of 10h. Fold change values were determined by comparing OD600‑normalized fluorescence of compound-treated samples to DMSO treated samples. PMBN is used as a CE stress-inducing control at 25 μg/mL, which is the concentration used as a control during the screening campaign. Chloramphenicol at 1 μg/mL is used as a non-stress-inducing antibiotic control. Error bars indicate standard deviation of the average of triplicate samples from at least two independent experiments. (F) Overview of the different stress responses based on the compound class.
as §2

[6] = tested on: σE stress response in E. coli TOP10F’; assay: σE stress kinetics reporter assay; assay type: cell-based
Method: as §4, §5, §2

[7] = tested on: Cpx stress response in E. coli TOP10F’; assay: Cpx stress kinetics reporter assay; assay type: cell-based
Method: as §4, §5, §2

[8] = tested on: Rcs stress (PrprA-mNG) in E. coli TOP10F’ cells; assay: Rcs stress reporter assay, laboratory scale 96-well end point; assay type: cell-based; conditions: 50 μM MRL-494, 150 min, compared to 25 μM PMBN (100%)
Method: as §2

[9] = tested on: heat shock (groES) response in E. coli TOP10F’; assay: Heat shock (groES) stress kinetics reporter assay; assay type: cell-based; conditions: PMBN 25 μg/mL
Method: as §4
as §5, with “Error bars indicate standard deviation of the average of triplicate samples from at least two independent experiments. (F) Overview of the different stress responses based on the compound class.” left out
as §2

[10] = compounds at EC80, PMBN 25 μg/mL
[11] = Figure 3F, compounds at EC80, PMBN 25 μg/mL

With `CCn1cc(C(=O)O)c(=O)c2cc(F)c(N3CCNC(C)C3)c(F)c21` (stereo not shown) [lomefloxacin, Lomefloxacin, reference compound] the “SOS stress induction in MC4100” value [1] was “high fluorescence”, the “SOS stress induction in TOP10F’” value [2] was “did not induce high fluorescence” and the “Rcs stress in FQR (gyrA S83L) mutant” value [3] was “lacked Rcs stress”. For the same compound, the “growth inhibition / susceptibility of GEPR mutant” value [4] was “less susceptible”, the EC50 (E. coli TOP10F') was 0.031 µg/mL (≈ 0.0882 µM) and the IC80 (E. coli TOP10F') was 2 µg/mL (≈ 5.69 µM). For the same compound, the EC50 (E. coli MC4100) was 0.125 µg/mL (≈ 0.356 µM) and the IC80 (E. coli MC4100) was 0.25 µg/mL (≈ 0.712 µM).

`O=c1ccc2ncc(=O)n3c2n1C[C@H]3CN1CCC(NCc2cc3c(cn2)OCCC3)CC1` [gepotidacin, Gepotidacin, reference compound] gave an MIC (A. baumanni 9955) of 16 µg/mL (≈ 35.7 µM), an MIC (E. coli 25922) of 2 µg/mL (≈ 4.46 µM) and an MIC (E. coli BW25113) of 1 µg/mL (≈ 2.23 µM). It also gave an MIC (E. coli TOP10F’) of 0.06 µg/mL (≈ 0.134 µM), an MIC (K. pneumoniae 13883) of 4 µg/mL (≈ 8.92 µM) and an MIC (P. aeruginosa 27853) of 8 µg/mL (≈ 17.8 µM). The MIC (S. aureus USA 300) was 0.25 µg/mL (≈ 0.557 µM), the Rcs onset time ([5]; EC80 concentrations) was ~100 min and the “time of (first) Rcs peak post-treatment” value ([5]; EC80 concentrations) was 260 to 280 min. The “fold increase in Rcs stress (up to)” value ([5]; EC80 concentrations, fluorescence/OD600 vs DMSO, 10 h) was ~17 fold, the “Rcs Pattern” value [5, 10] was “biphasic” and the “time of primary σE peak” value ([6]; EC80 concentrations) was ~150 min. For the same compound, the σE onset time ([6]; EC80 concentrations) was ~60 min, the “fold change in σE stress (up to)” value ([6]; EC80 concentrations, vs DMSO) was ~3 fold and the “σE Pattern” value [6, 10] was “biphasic”. For the same compound, the Cpx onset time ([7]; EC80 concentrations) was 150 to 200 min, the “Rcs stress in FQR (gyrA S83L) mutant” value [3] was “still exhibited Rcs stress” and the “Rcs stress in GEPR mutant” value [3] was “did not show Rcs stress”. For the same compound, the “growth inhibition / susceptibility of FQR (gyrA S83L) mutant” value [4] was “remained susceptible to growth inhibition”, the “growth inhibition / susceptibility of GEPR mutant” value [4] was “moderate insensitivity” and the EC50 (E. coli TOP10F') was 0.125 µg/mL (≈ 0.279 µM). It also gave an IC80 (E. coli TOP10F') of 8 µg/mL (≈ 17.8 µM), an EC50 (E. coli MC4100) of 1 µg/mL (≈ 2.23 µM) and an IC80 (E. coli MC4100) of 8 µg/mL (≈ 17.8 µM).

For `NC(N)=NC(=O)CC(Nc1nc(N=C(N)N)nc(NC2CCC(NC(=O)Cn3nnc(-c4ccc(F)cc4)n3)CC2)n1)C1CC1` (stereo not shown) [MRL-494, reference compound], the “% effect (Rcs stress-induced fluorescence)” value [8] was 100.4%, the “EC50 TOP10F'” value (E. coli TOP10F'; growth after 7 hours inhibited by 50% compared to DMSO control) was 16 µg/mL (≈ 25.7 µM) and the “EC80 TOP10F'” value (E. coli TOP10F'; growth after 7 hours inhibited by 80% compared to DMSO control) was 32 µg/mL (≈ 51.4 µM).

With `CO[C@@]12[C@H](COC(N)=O)C3=C(C(=O)C(C)=C(N)C3=O)N1C[C@@H]1N[C@@H]12` [mitomycin C] the “Rcs stress induction in SOS-deficient TOP10F’” value ([5]; fold change fluorescence/OD600) was “at lower levels than the gyrase inhibitors”, the “SOS stress induction in MC4100” value [1] was “high fluorescence” and the “SOS stress induction in TOP10F’” value [2] was “did not induce high fluorescence”. For the same compound, the “Rcs stress induction in MC4100 wildtype” value [3] was “Neither compound induced Rcs stress”.

In the case of polymyxin B nonapeptide [PMBN], the “Rcs Response time” value [5, 11] is reported as “Fast”, the “Rcs Pattern” value [5, 10] is reported as “Single peak” and the “σE Response time” value [6, 11] is reported as “Fast”. The “σE Pattern” value [6, 10] was “Single peak”, the “Cpx Pattern” value [7, 11] was “Continuous” and the “Cpx Response time” value [7, 11] was “Slow”. For the same compound, the heat shock induction [9] was “did not induce heat shock”.
